Laboratory results published in patent US8648215B2, “Spiroenone and uses thereof” (Joben Bio-Medical Co., Ltd., priority 2012, dated 2014).

Tested on: MCF-7 cells
Assay: MTT assay for antiproliferation, MCF-7 cells
Assay type: cell-based
Details: Homo sapiens, MCF7, 24 h, read-out: percentage of inhibition
Experimental: Cell Lines and Culture. MCF-7, T-47D, and H184B5F5/M10 cells were cultured with 5% CO2 atmosphere at 37° C.; MDA-MB-231 cells were cultured without CO2 at 37° C. The MCF-7 cells were cultured in MEM containing 10% heat-inactivated FBS, 100 units/mL penicillin, 100 μg/mL streptomycin, and 1 mM sodium pyruvate. The T-47D cells were maintained in RPMI-1640 medium containing 10% heat inactivated FBS, 100 units/mL penicillin, and 100 μg/mL streptomycin. […]
Assay for Antiproliferation. To determine the antiproliferative effect, MCF-7, T-47D, MDA-MB-231, or H184B5F5/M10 cells were assessed using the MTT assay as previously reported (Ho, C. Y.; Kim, C. F.; Leung, K. N.; Fung, K. P.; Tse, T. F.; Chan, H.; Lau, C. B. Differential anti-tumor activity of Coriolus versicolor (Yunzhi) extract through p53- and/or Bcl-2-dependent apoptotic pathway in human breast cancer cells. Cancer Biol. Ther. 2005, 4, e11-e17). […] The absorbance at 570 nm was measured, and the viability of cells was calculated using the following equation: relative cell number (%)=(average absorbance of treated wells)×100/(average absorbance of blank vehicle wells).

**Q.** Which inhibition at 50 µM does the source give for `COC1=C(C)CC2(CC1)C(C)=CC(=O)C=C2C` [compound 3, coixspiroenone] here?
**A.** 19.2%
